Data on one compound can be found in ChEMBL document CHEMBL5034025 (Eur J Med Chem, 2021).

The experiment has as its target Glutaminyl-peptide cyclotransferase (Homo sapiens, UniProt Q16769). In words: Inhibition of human recombinant glutaminyl cyclase using H-Gln-AMC hydrobromide as substrate measured after 15 mins by fluorimetry.

Sequence of Glutaminyl-peptide cyclotransferase (Q16769 whole entry): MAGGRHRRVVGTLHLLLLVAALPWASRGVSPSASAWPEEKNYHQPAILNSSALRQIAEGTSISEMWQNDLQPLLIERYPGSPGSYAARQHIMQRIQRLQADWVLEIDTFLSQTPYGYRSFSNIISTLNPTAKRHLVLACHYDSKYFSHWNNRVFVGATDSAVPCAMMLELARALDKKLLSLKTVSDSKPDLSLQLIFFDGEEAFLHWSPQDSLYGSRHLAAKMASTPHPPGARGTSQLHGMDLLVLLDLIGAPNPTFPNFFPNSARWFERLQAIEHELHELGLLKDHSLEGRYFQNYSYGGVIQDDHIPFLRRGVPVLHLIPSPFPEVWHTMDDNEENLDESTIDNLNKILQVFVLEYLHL

The IC50 is the concentration that gives 50% inhibition. For `COc1ccc(N(C(=S)NCCCn2cncc2C)C2CCN(C)CC2)cc1OC`, the IC50 is 6.1 nM.
